{"source": "patent US20060160897A1", "about": "“Topical Use of Valproic Acid for the Prevention or Treatment of Skin Disorders” (priority 2003, published 2006)", "key": {"HaCaT cells": {"test_system": "HaCaT cells", "test": "BrdU incorporation assay", "type": "cell-based, human", "conditions": "VPA added day 0, assay day 2, FIG. 4", "experimental": "BrdU incorporation assays: Cell proliferation was detected by labeling cells with BrdU. […] Cells were incubated for 1 hour in the culture medium and then fixed with 70% ethanol. The incorporated BrdU was detected by the indirect immunoperoxidase method (Amersham, Arlington Heights, Ill.). Briefly, the culture cells were first incubated for 1 hour with Biotin-Mouse Anti-BrdU antibody. After washing in TTBS buffer (20 mM Tris, 500 mM NaCl, 0.05% Tween-20, pH 7.5), the cells were further incubated with Biotinylated goat anti-mouse immunoglobulins for 10 min. Cells were then washed and incubated with enzyme (peroxidase) conjugate for 10 min at room temperature. […] The positive cells were counted on 10 randomly picked microscopic fields. HaCaT cells were plated in 35 mm diameter wells on day 0. […] The BrdU assay was carried out on day 2."}, "[1]": {"test_system": "acetylated histones H3 and H4 and HDAC-2", "test": "Western blot of peripheral blood cells from patients treated with VPA intravenously (Phase I/II study)", "type": "in vivo, human", "conditions": "before, 6 h, 24 h, 48 h after start, FIG. 18", "experimental": "Whole cell extracts were prepared by lysis of cells in RIPA buffer including protease inhibitors. Lysates were separated by SDS gel electrophoresis and transferred onto PVDF membranes. Acetylated histones H3 and H4 and the marker gene HDAC-2 were detected by western blot analysis using an anti-acetylated H3 antibody (Upstate, #06-942), an anti-acetylated H4 antibody (clon T25; patent application EP 02.021984.6), and an anti-HDAC-2 antibody (SCBT, SC-7899). As an equal loading control PVDF membranes were stained with Coomassie (FIG. 18)."}}}
{"smiles": "CCCC(CCC)C(=O)O", "note": "[VPA, 2-propyl-pentanoic acid]", "values": [{"measurement": "BrdU positive cells (cell cycle arrest)", "setting": "HaCaT cells", "value": "dose-dependent reduction of BrdU positive cells"}, {"measurement": "HDAC-2 protein in peripheral blood cells", "setting": "[1]", "value": "down-regulation of the marker protein HDAC-2"}, {"measurement": "histone H3 and H4 acetylation in peripheral blood cells", "setting": "[1]", "value": "Histone H3 and H4 hyperacetylation"}]}
